Each structure is given as a SMILES string. Calls of active or inactive are those of the source. Rule as the data show it: actives have a measured IC50 and inactives only a lower limit.

The IC50 is the concentration at which inhibition is half-maximal.

Chain of Envelope glycoprotein gp160 (Q6QLK5 whole entry, the tested form may be a part): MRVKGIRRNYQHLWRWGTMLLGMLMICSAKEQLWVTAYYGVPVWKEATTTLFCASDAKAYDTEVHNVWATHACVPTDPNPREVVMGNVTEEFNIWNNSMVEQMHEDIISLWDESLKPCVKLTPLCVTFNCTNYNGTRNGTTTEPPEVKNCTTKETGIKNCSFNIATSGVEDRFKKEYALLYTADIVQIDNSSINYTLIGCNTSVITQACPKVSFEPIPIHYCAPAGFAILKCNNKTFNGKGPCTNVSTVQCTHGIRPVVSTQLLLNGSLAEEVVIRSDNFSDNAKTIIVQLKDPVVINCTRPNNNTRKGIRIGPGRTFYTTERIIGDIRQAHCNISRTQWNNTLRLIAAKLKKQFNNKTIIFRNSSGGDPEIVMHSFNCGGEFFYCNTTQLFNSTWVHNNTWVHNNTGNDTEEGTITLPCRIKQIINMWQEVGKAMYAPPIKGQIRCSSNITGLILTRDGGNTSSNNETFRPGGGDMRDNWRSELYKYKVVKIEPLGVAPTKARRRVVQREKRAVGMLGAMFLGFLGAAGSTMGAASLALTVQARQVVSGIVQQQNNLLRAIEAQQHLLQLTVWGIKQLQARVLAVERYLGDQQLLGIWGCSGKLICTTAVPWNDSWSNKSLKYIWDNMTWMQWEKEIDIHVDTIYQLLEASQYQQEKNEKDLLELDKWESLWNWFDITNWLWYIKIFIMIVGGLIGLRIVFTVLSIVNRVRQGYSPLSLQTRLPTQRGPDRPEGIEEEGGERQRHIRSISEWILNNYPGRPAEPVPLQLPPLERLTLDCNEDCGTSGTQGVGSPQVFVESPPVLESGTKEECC

The assay concerns the target Envelope glycoprotein gp160 (Human immunodeficiency virus 1, UniProt Q6QLK5). The assay can be described thus: cell-free HIV fusion peptide-binding blockers – biochemical, uHTS, fluorescence dequenching, […] (AID 1986).
`COc1cc(NS(=O)(=O)c2ccc(NC(=S)NC(=O)c3sc4ccccc4c3Cl)cc2)nc(OC)n1`: the IC50 is 16.5 µM (active).
On to `CCCCCC#CCC#CCC#CCC#CCCCC(=O)O`, for which the IC50 was 11.9 µM (active).
The result for `CC(C)S(=O)(=O)C1=NSC2=NC(=O)/C(=C\c3ccc(-c4cccc(C(=O)O)c4)o3)C(=N)N21` reads 18.3 µM (active).
The result for `O=C(COc1ccc(Cl)cc1Cl)Nc1ccc(C(=O)Nc2ccccc2C(=O)O)cc1` reads 9.54 µM (active).
